Reference: patent US20140106967A1, “AUXIN PLANT GROWTH REGULATORS” (The Governors of The University of Alberta, priority 2011, published 2014)

Test system: pea plants cv. 'Carneval'
Assay: Growth chamber experiment 2, pea 'Carneval' sprayed with 4-ME-IAA: peduncle/pedicel growth and seed yield, with or without heat stress (Tables P3-P12)
Format: in vivo, Pisum sativum L.
Description: For growth chamber experiment, seeds of ‘Carneval’ were planted at an approximate depth of 2.5 cm in 3-L plastic pots (4 seeds per pot and thinned to 2 plants per pot after approximately 2 weeks) in 1:1 Sunshine #4 potting mix (Sun Gro Horticulture, Vancouver, Canada) and sand. The experiment was arranged in a completely randomized design and grown at the University of Alberta in a growth chamber set at 19° C./17° C. (day/night) with a 16/8-h photoperiod under cool-white fluorescent lights (54W/835/HO high fluorescent bulbs, Phillips, Holland; 350 μE m^2 s^−2). For the heat stress treatment, plants were placed in a separate growth chamber with a 16/8-h photoperiod under cool-white fluorescent lights (F54/15/835/HO high fluorescent bulbs, Phillips, Holland) for 4 days where the temperature was cycled over a 24 hr period as follows: 33° C. air temperature for 6 hours per day (between 11:00 and 17:00 hrs) for 4 days during the light cycle; the remainder of the light cycle was maintained at a 22° C. air temperature; the dark cycle was maintained at 19° C. After the 4 day heat treatment, the plants were returned to the same growth chamber they were originally grown in, where they were taken to maturity.
For experiment 2, aqueous 4-methyl-indole-3-acetic acid (4-ME-IAA) solutions at 1×10^−7, 1×10^−6, 1×10^−5, or 1×10^−4 M in 0.1% (v/v) Tween 80 or aqueous 0.1% (v/v) Tween 80 (control) were applied as a spray to the entire plant to cover when the first flowering node of the main stem was near or at anthesis. In addition to the application at the timing cited above, one application of 4-ME-IAA at 1×10^−6 M or 1×10^−5 M was made when the floral buds were tightly clustered inside the stipule leaves at the stem apex (floral buds not visible outside of stipule leaves; designated the ‘Early’ treatment). In the heat stress treatment, the hormone or control treatment application was completed 16 hrs prior to the initiation of the first heat-stress cycle. The length and diameter (measured mid-length) of the lower and upper peduncles and pedicels of the inflorescence with two pods (or the lower peduncle and pedicel if a single pod node) at the first, second, third and fourth flowering nodes of the main stem of pea plants were determined for hormone-treated and control plants. Standard error of the mean (SE) was calculated for the means of all data for a measure of statistical significance in comparing treatment means.

[1] = 1×10^−4 M, applied near or at anthesis, no heat stress
[2] = 1×10^−4 M, first flowering node, heat stress (33° C. 6 h/day, 4 days)
[3] = 1×10^−4 M, first flowering node, no heat stress
[4] = 1×10^−4 M, fourth flowering node, heat stress (33° C. 6 h/day, 4 days)
[5] = 1×10^−4 M, fourth flowering node, no heat stress
[6] = 1×10^−4 M, heat stress (33° C. 6 h/day, 4 days)
[7] = 1×10^−4 M, second flowering node, heat stress (33° C. 6 h/day, 4 days)
[8] = 1×10^−4 M, second flowering node, no heat stress
[9] = 1×10^−4 M, third flowering node, heat stress (33° C. 6 h/day, 4 days)
[10] = 1×10^−4 M, third flowering node, no heat stress
[11] = 1×10^−5 M, applied near or at anthesis, no heat stress
[12] = 1×10^−5 M, first flowering node, heat stress (33° C. 6 h/day, 4 days)
[13] = 1×10^−5 M, first flowering node, no heat stress
[14] = 1×10^−5 M, fourth flowering node, heat stress (33° C. 6 h/day, 4 days)
[15] = 1×10^−5 M, fourth flowering node, no heat stress
[16] = 1×10^−5 M, heat stress (33° C. 6 h/day, 4 days)
[17] = 1×10^−5 M, second flowering node, heat stress (33° C. 6 h/day, 4 days)
[18] = 1×10^−5 M, second flowering node, no heat stress
[19] = 1×10^−5 M, third flowering node, heat stress (33° C. 6 h/day, 4 days)
[20] = 1×10^−5 M, third flowering node, no heat stress
[21] = 1×10^−6 M, applied near or at anthesis, no heat stress
[22] = 1×10^−6 M, first flowering node, heat stress (33° C. 6 h/day, 4 days)

Structure (SMILES): Cc1cccc2[nH]cc(CC(=O)O)c12 [4-ME-IAA, 4-methyl-indole-3-acetic acid]
- Ratio of seed number on main stem to lateral stems [1]: 4.6 ± 1.1
- Seed number per plant [1]: 56.7 ± 3.6
- Seed weight per plant [1]: 14.0 ± 1.0 g
- Weight per seed [1]: 0.247 ± 0.006 g
- increase in seed yield (seed weight per plant) vs control [1]: 61%
- Lower Pedicel Length [2]: 7.63 ± 0.46 mm
- Lower Pedicel diameter [2]: 1.58 ± 0.09 mm
- Lower Peduncle Length [2]: 52.22 ± 4.26 mm
- Lower Peduncle diameter [2]: 1.71 ± 0.06 mm
- Upper Pedicel Length [2]: 7.00 ± 0.45 mm
- Upper Pedicel diameter [2]: 1.6 ± 0.07 mm
- Upper Peduncle Length [2]: 17.00 ± 1.37 mm
- Upper Peduncle diameter [2]: 1.44 ± 0.07 mm
- Lower Pedicel Length [3]: 8.50 ± 0.37 mm
- Lower Pedicel diameter [3]: 1.73 ± 0.05 mm
- Lower Peduncle Length [3]: 69.70 ± 4.21 mm
- Lower Peduncle diameter [3]: 1.73 ± 0.07 mm
- Upper Pedicel Length [3]: 8.10 ± 0.43 mm
- Upper Pedicel diameter [3]: 1.54 ± 0.05 mm
- Upper Peduncle Length [3]: 15.20 ± 1.36 mm
- Upper Peduncle diameter [3]: 1.44 ± 0.03 mm
- Lower Pedicel Length [4]: 7.00 ± 0.41 mm
- Lower Pedicel diameter [4]: 1.45 ± 0.11 mm
- Lower Peduncle Length [4]: 25.50 ± 3.97 mm
- Lower Peduncle diameter [4]: 1.38 ± 0.10 mm
- Upper Pedicel Length [4]: 7.00 ± 0.0 mm
- Upper Pedicel diameter [4]: 1.33 ± 0.15 mm
- Upper Peduncle Length [4]: 14.50 ± 0.50 mm
- Upper Peduncle diameter [4]: 1.17 ± 0.02 mm
- Lower Pedicel Length [5]: 8.44 ± 0.23 mm
- Lower Pedicel diameter [5]: 1.42 ± 0.05 mm
- Lower Peduncle Length [5]: 41.00 ± 3.24 mm
- Lower Peduncle diameter [5]: 1.36 ± 0.06 mm
- Upper Pedicel Length [5]: 8.22 ± 0.14 mm
- Upper Pedicel diameter [5]: 1.36 ± 0.06 mm
- Upper Peduncle Length [5]: 16.67 ± 0.39 mm
- Upper Peduncle diameter [5]: 1.17 ± 0.04 mm
- Ratio of seed number on main stem to lateral stems [6]: 2.1 ± 0.4
- Seed number plant [6]: 55.6 ± 6.2
- Seed weight per per plant [6]: 14.5 ± 1.7 g
- Weight per seed [6]: 0.261 ± 0.009 g
- Lower Pedicel Length [7]: 7.56 ± 0.38 mm
- Lower Pedicel diameter [7]: 1.56 ± 0.06 mm
- Lower Peduncle Length [7]: 40.33 ± 4.51 mm
- Lower Peduncle diameter [7]: 1.63 ± 0.04 mm
- Upper Pedicel Length [7]: 7.25 ± 0.25 mm
- Upper Pedicel diameter [7]: 1.54 ± 0.05 mm
- Upper Peduncle Length [7]: 16.88 ± 1.52 mm
- Upper Peduncle diameter [7]: 1.29 ± 0.04 mm
- Lower Pedicel Length [8]: 8.30 ± 0.47 mm
- Lower Pedicel diameter [8]: 1.65 ± 0.05 mm
- Lower Peduncle Length [8]: 55.60 ± 4.08 mm
- Lower Peduncle diameter [8]: 1.67 ± 0.06 mm
- Upper Pedicel Length [8]: 8.3 ± 0.47 mm
- Upper Pedicel diameter [8]: 1.55 ± 0.05 mm
- Upper Peduncle Length [8]: 18.40 ± 0.72 mm
- Upper Peduncle diameter [8]: 1.38 ± 0.05 mm
- Lower Pedicel Length [9]: 7.33 ± 0.29 mm
- Lower Pedicel diameter [9]: 1.55 ± 0.08 mm
- Lower Peduncle Length [9]: 28.22 ± 3.07 mm
- Lower Peduncle diameter [9]: 1.53 ± 0.06 mm
- Upper Pedicel Length [9]: 7.50 ± 0.29 mm
- Upper Pedicel diameter [9]: 1.49 ± 0.05 mm
- Upper Peduncle Length [9]: 14.00 ± 1.00 mm
- Upper Peduncle diameter [9]: 1.29 ± 0.03 mm
- Lower Pedicel Length [10]: 8.20 ± 0.33 mm
- Lower Pedicel diameter [10]: 1.49 ± 0.06 mm
- Lower Peduncle Length [10]: 49.90 ± 4.2 mm
- Lower Peduncle diameter [10]: 1.53 ± 0.05 mm
- Upper Pedicel Length [10]: 8.10 ± 0.28 mm
- Upper Pedicel diameter [10]: 1.40 ± 0.06 mm
- Upper Peduncle Length [10]: 19.10 ± 0.75 mm
- Upper Peduncle diameter [10]: 1.21 ± 0.04 mm
- Ratio of seed number on main stem to lateral stems [11]: 3.3 ± 0.6
- Seed number per plant [11]: 60.3 ± 3.2
- Seed weight per plant [11]: 14.0 ± 0.9 g
- Weight per seed [11]: 0.230 ± 0.004 g
- increase in seed yield (seed weight per plant) vs control [11]: 61%
- Lower Pedicel Length [12]: 9.11 ± 0.26 mm
- Lower Pedicel diameter [12]: 1.59 ± 0.06 mm
- Lower Peduncle Length [12]: 61.33 ± 4.13 mm
- Lower Peduncle diameter [12]: 1.60 ± 0.08 mm
- Upper Pedicel Length [12]: 8.83 ± 0.17 mm
- Upper Pedicel diameter [12]: 1.56 ± 0.08 mm
- Upper Peduncle Length [12]: 16.00 ± 1.46 mm
- Upper Peduncle diameter [12]: 1.33 ± 0.04 mm
- Lower Pedicel Length [13]: 8.70 ± 0.45 mm
- Lower Pedicel diameter [13]: 1.58 ± 0.04 mm
- Lower Peduncle Length [13]: 63.10 ± 4.95 mm
- Lower Peduncle diameter [13]: 1.53 ± 0.05 mm
- Upper Pedicel Length [13]: 8.70 ± 0.37 mm
- Upper Pedicel diameter [13]: 1.49 ± 0.03 mm
- Upper Peduncle Length [13]: 19.90 ± 1.12 mm
- Upper Peduncle diameter [13]: 1.31 ± 0.03 mm
- Lower Pedicel Length [14]: 7.17 ± 0.48 mm
- Lower Pedicel diameter [14]: 1.41 ± 0.07 mm
- Lower Peduncle Length [14]: 29.50 ± 2.63 mm
- Lower Peduncle diameter [14]: 1.39 ± 0.02 mm
- Lower Pedicel Length [15]: 9.00 ± 0.44 mm
- Lower Pedicel diameter [15]: 1.22 ± 0.09 mm
- Lower Peduncle Length [15]: 40.22 ± 3.64 mm
- Lower Peduncle diameter [15]: 1.41 ± 0.05 mm
- Upper Pedicel Length [15]: 8.88 ± 0.44 mm
- Upper Pedicel diameter [15]: 1.11 ± 0.10 mm
- Upper Peduncle Length [15]: 18.13 ± 0.88 mm
- Upper Peduncle diameter [15]: 1.03 ± 0.08 mm
- Ratio of seed number on main stem to lateral stems [16]: 1.1 ± 0.1
- Seed number plant [16]: 50.6 ± 5.0
- Seed weight per per plant [16]: 13.7 ± 1.2 g
- Weight per seed [16]: 0.274 ± 0.005 g
- Lower Pedicel Length [17]: 8.11 ± 0.11 mm
- Lower Pedicel diameter [17]: 1.68 ± 0.07 mm
- Lower Peduncle Length [17]: 47.11 ± 5.35 mm
- Lower Peduncle diameter [17]: 1.58 ± 0.05 mm
- Upper Pedicel Length [17]: 8.00 ± 0.29 mm
- Upper Pedicel diameter [17]: 1.55 ± 0.06 mm
- Upper Peduncle Length [17]: 16.33 ± 0.82 mm
- Upper Peduncle diameter [17]: 1.32 ± 0.04 mm
- Lower Pedicel Length [18]: 8.80 ± 0.33 mm
- Lower Pedicel diameter [18]: 1.50 ± 0.04 mm
- Lower Peduncle Length [18]: 53.50 ± 5.01 mm
- Lower Peduncle diameter [18]: 1.45 ± 0.04 mm
- Upper Pedicel Length [18]: 8.60 ± 0.37 mm
- Upper Pedicel diameter [18]: 1.39 ± 0.04 mm
- Upper Peduncle Length [18]: 18.10 ± 0.74 mm
- Upper Peduncle diameter [18]: 1.16 ± 0.03 mm
- Lower Pedicel Length [19]: 7.67 ± 0.37 mm
- Lower Pedicel diameter [19]: 1.58 ± 0.06 mm
- Lower Peduncle Length [19]: 39.22 ± 3.35 mm
- Lower Peduncle diameter [19]: 1.52 ± 0.05 mm
- Upper Pedicel Length [19]: 7.00 ± 0.32 mm
- Upper Pedicel diameter [19]: 1.56 ± 0.08 mm
- Upper Peduncle Length [19]: 16.20 ± 1.74 mm
- Upper Peduncle diameter [19]: 1.38 ± 0.09 mm
- Lower Pedicel Length [20]: 8.56 ± 0.41 mm
- Lower Pedicel diameter [20]: 1.35 ± 0.04 mm
- Lower Peduncle Length [20]: 47.11 ± 4.73 mm
- Lower Peduncle diameter [20]: 1.53 ± 0.03 mm
- Upper Pedicel Length [20]: 8.67 ± 0.29 mm
- Upper Pedicel diameter [20]: 1.25 ± 0.05 mm
- Upper Peduncle Length [20]: 20.44 ± 1.00 mm
- Upper Peduncle diameter [20]: 1.13 ± 0.05 mm
- Ratio of seed number on main stem to lateral stems [21]: 2.9 ± 0.6
- Seed number per plant [21]: 63.3 ± 4.6
- Seed weight per plant [21]: 14.9 ± 0.9 g
- Weight per seed [21]: 0.238 ± 0.006 g
- increase in seed yield (seed weight per plant) vs control [21]: 71%
- Lower Pedicel Length [22]: 8.80 ± 0.29 mm
- Lower Pedicel diameter [22]: 1.47 ± 0.05 mm
- Lower Peduncle Length [22]: 60.40 ± 5.23 mm
